Test systems include SNB-19 CNS; MDA-MB-231 breast; MCF7 breast; SK-OV-3 ovarian; MDA-MB-435; NCI/ADR-RES ovarian; SK-MEL-5 melanoma; SW-620 colon; UO-31 renal; NCI-H460 lung; OVCAR-4 ovarian; UACC-257 melanoma; SNB-75 CNS; CCRF-CEM leukemia; BT-549 breast; OVCAR-3 ovarian; HOP-92 NSCLC; HT29 colon; MALME-3M melanoma.
Assay in all cases: NCI tumour cell line growth inhibition, 48 h

SMILES strings stand for the structures.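 1) Cells in 96-well plates. 2) Compound, 48 h, 5 concentrations. 3) Linear interpolation between surrounding doses. 4) Unreached endpoint = highest concentration. TGI: concentration producing complete growth inhibition.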

`Cc1c(C#N)c2ccccc2c2nc3ccccc3n12`: the TGI with SNB-19 CNS is greater than 100 µM; with MDA-MB-231 breast, 86.9 µM; in the experiment on MCF7 breast, greater than 100 µM; in the experiment on SK-OV-3 ovarian it was greater than 100 µM; in the experiment with MDA-MB-435 it was greater than 100 µM; with NCI/ADR-RES ovarian, greater than 100 µM. For the same molecule, the TGI in the experiment with SK-MEL-5 melanoma was 36.5 µM; in the experiment with SW-620 colon, greater than 100 µM; with UO-31 renal, greater than 100 µM; with NCI-H460 lung it was greater than 100 µM; with OVCAR-4 ovarian, greater than 100 µM; in the experiment with UACC-257 melanoma, greater than 100 µM. Further, the TGI with SNB-75 CNS, with CCRF-CEM leukemia, in the experiment with BT-549 breast, in the experiment on OVCAR-3 ovarian and in the experiment with HOP-92 NSCLC was greater than 100 µM in each case.

Consider `O=C1NC(=O)C(CC(C(=O)C(=O)Nc2ccccc2Cl)C(=O)c2ccc3ccccc3c2)C(=O)N1` (stereo unspecified), for which the TGI in the experiment with SNB-19 CNS, with MDA-MB-231 breast, in the experiment with MCF7 breast, in the experiment with SK-OV-3 ovarian, in the experiment on MDA-MB-435 and in the experiment on NCI/ADR-RES ovarian was greater than 100 µM throughout. The TGI in the experiment on SK-MEL-5 melanoma, in the experiment on SW-620 colon, with UO-31 renal, in the experiment with NCI-H460 lung, in the experiment with OVCAR-4 ovarian and with UACC-257 melanoma was greater than 100 µM throughout. The TGI in the experiment with HT29 colon, in the experiment on SNB-75 CNS, with CCRF-CEM leukemia, in the experiment on BT-549 breast, with OVCAR-3 ovarian and with HOP-92 NSCLC was greater than 100 µM throughout.

As to `COC(=O)C(C)(C)OCc1ccc(C2NC(=O)N(c3cccc(Cl)c3)C(=O)N2c2cccc(Cl)c2)cc1` (stereo unspecified), the TGI with SNB-19 CNS, in the experiment on MDA-MB-231 breast, with MCF7 breast, with SK-OV-3 ovarian, with MDA-MB-435 and with NCI/ADR-RES ovarian was greater than 100 µM in each case. For the same molecule, the TGI with SK-MEL-5 melanoma was 52.8 µM; with SW-620 colon, greater than 100 µM; in the experiment on UO-31 renal, greater than 100 µM; with NCI-H460 lung, greater than 100 µM; in the experiment with OVCAR-4 ovarian, greater than 100 µM; with UACC-257 melanoma, greater than 100 µM. For the same molecule, the TGI in the experiment with HT29 colon was greater than 100 µM; in the experiment on SNB-75 CNS, 6.95 µM; in the experiment with CCRF-CEM leukemia, greater than 100 µM; with BT-549 breast, greater than 100 µM; in the experiment with OVCAR-3 ovarian, greater than 100 µM; in the experiment on HOP-92 NSCLC, 69.7 µM.

Take `CN(C)c1ccc(/C=C(\NC(=O)c2ccccc2)C(=O)NCC(=O)O)cc1`: the TGI in the experiment on SNB-19 CNS, in the experiment on MDA-MB-231 breast, with MALME-3M melanoma, in the experiment on MCF7 breast, with SK-OV-3 ovarian and in the experiment on MDA-MB-435 was greater than 100 µM in each case. Besides, the TGI in the experiment with NCI/ADR-RES ovarian, in the experiment on SK-MEL-5 melanoma, with SW-620 colon, with UO-31 renal, in the experiment with NCI-H460 lung and in the experiment with UACC-257 melanoma was greater than 100 µM throughout. Besides, the TGI in the experiment with HT29 colon, with SNB-75 CNS, with CCRF-CEM leukemia, with BT-549 breast, with OVCAR-3 ovarian and in the experiment with HOP-92 NSCLC was greater than 100 µM in each case.

For `Cc1n[nH]c(=O)n1C1CCCC1`, the TGI in the experiment with SNB-19 CNS, in the experiment on MDA-MB-231 breast, in the experiment with MALME-3M melanoma, in the experiment on MCF7 breast, with MDA-MB-435 and in the experiment on NCI/ADR-RES ovarian was greater than 100 µM each time. The TGI in the experiment on SK-MEL-5 melanoma, with SW-620 colon, in the experiment on UO-31 renal, with NCI-H460 lung, with OVCAR-4 ovarian and in the experiment on UACC-257 melanoma was greater than 100 µM in each case. Moreover, the TGI in the experiment on HT29 colon, in the experiment on SNB-75 CNS, in the experiment on CCRF-CEM leukemia, in the experiment on BT-549 breast, in the experiment with OVCAR-3 ovarian and in the experiment with HOP-92 NSCLC was greater than 100 µM each time.

In the case of `O=C(Nc1nc(C23CC4CC(CC(C4)C2)C3)cs1)c1c(O)c2ccccc2[nH]c1=O`, the TGI in the experiment with SNB-19 CNS, in the experiment on MDA-MB-231 breast, in the experiment with MALME-3M melanoma, in the experiment on MCF7 breast, in the experiment on MDA-MB-435 and in the experiment with NCI/ADR-RES ovarian was greater than 100 µM each time. In addition, the TGI with SK-MEL-5 melanoma, with SW-620 colon, in the experiment on UO-31 renal, in the experiment on NCI-H460 lung, in the experiment on OVCAR-4 ovarian and in the experiment with UACC-257 melanoma was greater than 100 µM in each case. The TGI with HT29 colon, in the experiment with CCRF-CEM leukemia, with BT-549 breast, with OVCAR-3 ovarian and in the experiment with HOP-92 NSCLC was greater than 100 µM throughout.

Values taken from PubChem BioAssay (NCI).
